From patent US20260327211A1, “MODULATORS OF A POTASSIUM CHANNEL AND OF TRPV1 CHANNEL AND USES THEREOF” (Bsense Bio Therapeutics Ltd., priority 2023, published 2026)
Values after ≈ are worked out from the molar mass of the structure shown. Like-named read-outs stand apart in the source and are kept apart here.

Legend:
hTRPV1 = biological target: T1, hTRPV1 (Homo sapiens, UniProt Q8NER1); assay: TRPV1 HCS, Fluo-8 calcium flux, capsaicin activation, CHO cells expressing hTRPV1; format: cell-based
T1 construct: CDS of NM_080704.4, inserted into the multiple cloning site of pcDNA3.1(+); host or cells: CHO/hKv7.2/3
Protocol: Cell culture: Chinese hamster ovary (CHO) cell-line cells with constitutive expression of human hTRPV1 channels (B'SYS GmbH, Switzerland) were cultured in F-12 nutrient mixture (Biological Industries) supplemented with 10% fetal bovine serum (Biological Industries) and 1% penicillin-streptomycin (Biological Industries) in a humidified 5% CO2 incubator at 37° C. To maintain the stable expression of hTRPV1, antibiotic selection (G418 500 μg/ml) was applied.
High content screen (HCS) using Fluo-8 No Wash Calcium flux Assay Kit: Fluo-8 No Wash Calcium Assay Kit (Abcam, ab112129) was used with CHO stably or transiently expressing TRPV1 to screen compounds against the hTRPV1 ion channel target. The cells were pre-loaded with Fluo-8AM which is membrane permeable. The AM groups of the Fluo-8AM were then being cleaved by intracellular esterase, trapping the Fluo8 in the cell. […] The relative fluorescence signal was calculated following background subtraction, comparing the fluorescence at each time point to its maximal level measured following Ionomycin application in the end.
According to optimization process to achieve uniform and consistent screening condition of molecules the following protocol was established: Cells were seeded in 384-well, black-walled, clear-bottomed, at a density of 5,000 cells per well 24 h before the assay conductance and incubated overnight in their normal growth medium. On the experiment day the medium was replaced in each well with HBSS, HEPES, and compound/vehicle (0.2% DMSO). Dye solution (prepared according to the manufacturer) was added to the wells and plates are incubated for 1.5 h light-protected in room temperature. The Tecan Spark plate reader injectors were then primed with capsaicin and Ionomycin for channel activation and data normalization, respectively. […] To calculate IC50 values, the data was fitted to sigmoidal regression line using Prism GraphPad. The fitting was constrained to a minimum of 0 and a maximal response of about 1 unless a different maximal response could be identified.

hKv7.2/3 = biological target: T2, hKv7.2/3 (Homo sapiens, UniProt O43525+O43526); assay: Kv7.2/7.3 HCS, FLIPR potassium (thallium) assay, CHO/hKv7.2/3; format: cell-based; details: for EC50: Table 1, read-out: Kv7.2/7.3 IC50
T2 construct: host or cells: CHO
Protocol: Cell culture: Chinese hamster ovary (CHO) cell-line cells with a constitutive expression of human Kv7.2/3 channels (B'SYS GmbH, Switzerland) were cultured in F-12 nutrient mixture (Biological Industries) supplemented with 10% fetal bovine serum (Biological Industries) and 1% penicillin-streptomycin (Biological Industries) in a humidified 5% CO2 incubator at 37° C. To maintain the stability of human Kv7.2/7.3 expression antibiotic selection was added (Puromycin 5 μg/ml).
High content screen (HCS) using FLIPR Potassium Assay Kit: A FLIPR Potassium Assay Kit (R8222 FLIPR Potassium Assay Explorer Kits, Molecular Devices) was used with the CHO/hKv7.2/3 cell line to screen molecules against the hKv7.2/7.3 ion channel target. The assay exploits the permeability of thallium ions (Tl+) through potassium (K+) channels. In this assay, Tl+ indicator dye is used to produce a bright fluorescent signal upon the binding to Tl+ conducted through the potassium channels. The intensity of the Tl+ signal is proportional to the number of potassium channels in the open state. Therefore, it provides a functional indication of the potassium channel activity. To activate the voltage-gate potassium channels, the cells were stimulated with a mixture of K+ and Tl+ to depolarize the cell membrane. The fluorescence increase in the assay represents the influx of Tl+ into the cell specifically through the potassium channel, providing a functional read-out of hKv7.2/3 activity using a fluorescent plate reader coupled with injectors used to activate the channels.
According to optimization process to achieve uniform and consistent screening conditions the following protocol was established: Cells were seeded in 384-well, black-walled, clear-bottomed Greiner #781091, at a density of 5000 cells per well 24 hours before the assay conductance and incubated overnight in their normal growth medium. On the experiment day the medium was replaced with HBSS, HEPES, and the test compound/vehicle (0.2% DMSO). Dye solution (prepared according to the manufacturer) was added to the plates, which were incubated for 1.5 h light-protected in room temperature. Tecan Spark reader plate injectors were primed with Tl+(1 mM Tl2SO4) or Tl++K+(1 mM Tl2SO4; 5 mM K2SO4) for channel activation and data correction. […] To calculate EC50 values, the data was fitted to sigmoidal regression using Prism GraphPad. The fitting was constrained to a minimum of 1 and a maximal response of about 3.6 unless a different maximal response could be clearly identified.

[1] = Log D, 1-octanol/buffer shake flask; format: physicochemical; details: pH 7.4
Protocol: The Log D assay was a miniaturized 1-octanol/buffer shake flask method followed by LC/MS/MS analysis, as follows.
The test compounds or control compounds Nadolol, Chlorpromazine Hydrochloride and Propranolol Hydrochloride were dissolved in 100% DMSO to obtain 10 mM solutions, which were transferred to 96-well polypropylene cluster tubes; 2 μL/well. 1-octanol saturated with 0.1 M phosphate buffer (149 μL/well) and 0.1 M phosphate buffer saturated with 1-octanol (149 μL/well) were added to the tubes, respectively, and each tube was vigorously mixed for 2 minutes and then shaked at a speed of 800 rpm at room temperature for 1 hour, followed by centrifugation at 4000 rpm for 5 minutes at room temperature. Thereafter, for the test compounds and the Chlorpromazine Hydrochloride and Propranolol Hydrochloride, the sample of the buffer layer was diluted by a factor of 50-fold and the sample of 1-octanol layer was diluted by a factor of 2000-fold with internal standard (IS) solution. For Nadolol, the sample of the buffer layer was diluted by a factor of 1000-fold and the sample of 1-octanol layer was diluted by a factor of 400-fold with internal standard (IS) solution. The samples were analyzed using a triple quadrupole mass spectrometer. Peak areas were corrected by dilution factors and embedded internal standard, and the ratio of the corrected peak areas was used to calculate the Log D value. The Log D value for each compound will be calculated by the following equation: […]

Kinetic solubility = format: physicochemical; details: Table 1; for solubility kinetic: hhbs buffer, aqueous buffer, read-out: Kinetic Sol.
Protocol: Solubility measurements were performed prior to each in vitro assay to ensure accurate dose response and reproducibility. Briefly, each compound was dissolved to 60 mM in DMSO and calibration curve was performed from 1.5-200 μM using absorbance spectra analysis and determination of λmax. Calibration curve served as the readout for all following assays. The 60 mM stock solution was used to make a 120 μM target concentration of 0.2% DMSO in the appropriate buffer of the in vitro related assay (i.e. HHBS buffer). Solubilized compounds were vortex for 10 minutes followed by centrifugation for 15 minutes in 5000 RPM and the supernatant was recovered for absorbance spectra analysis between 200-400 nm.

[2] = Human liver microsome metabolic stability; format: in vitro ADME; details: human liver microsomes; for HLM Clint: 1 µM; for microsomal CLint at 1 µM: read-out: HLM Clint
From the text: Liver microsomes which are subcellular particles derived from endoplasmic reticulum of hepatic cells were used for evaluating the tested compounds. These particles are rich in drug metabolizing enzymes, including the cytochrome p-450 family. Liver microsomes are a recommended test system for various in vitro drug metabolism and pharmacokinetics (DMPK) studies. CLint values lower than […] are considered suitable for drug development.
Liver Microsome Metabolic Stability Assay (NADPH): The liver microsome stability assay was evaluated through pre-incubation with HLMs. A liver microsome mixture (pooled from multiple donors) at a concentration of 0.5 mg/mL, and the test compound at a concentration of 1 μM, were warmed in the presence of a NADPH regenerating system (about 1.0 mM) at 37° C. Positive controls, including testosterone (a CYP3A4 substrate), propafenone (a CYP2D6 substrate), and diclofenac (a CYP2C9) substrate, were concurrently incubated with the HLMs, in the presence of the NADPH regenerating system (1.0 mM). Samples were extracted during incubation at multiple intervals: 0, 5, 15, 30, 45 and 60 minutes. To terminate the reactions, the samples were promptly mixed with cooled acetonitrile that included an internal standard (IS). An additional compound was incubated with the HLMs in the absence of the NADPH regeneration system, from which a sample was taken at the 60-minute interval.
The clearance of the test compound in the samples was subsequently analyzed by LC-MS/MS based on the peak area ratios of the analyte to the IS.
The following equation was used to calculate the microsome clearance: […]
Liver weight: 40 grams/kg, 30 grams/kg, 32 grams/kg, 20 grams/kg and 88 grams/kg, for rat, monkey, dog, human and mouse, respectively.

hERG = hERG (Homo sapiens, UniProt Q12809); assay: hERG HCS, FLIPR potassium assay, CHO/hERG; format: cell-based; parameters: host or cells: CHO; details: Table 1; for IC50: read-out: hERG IC50; for hERG IC50 (inhibition in parentheses): at highest concentration shown
Protocol: Cell culture: Chinese hamster ovary (CHO) cell-line cells with a constitutive expression of human hERG channels (B'SYS GmbH, Switzerland) were cultured in F-12 nutrient mixture (Biological Industries) supplemented with 10% fetal bovine serum (Biological Industries) and 1% penicillin-streptomycin (Biological Industries) in a humidified 5% CO2 incubator at 37° C. To maintain the hERG expression stability of the CHO cell line, antibiotics selection (G418 […] and Hygromycin 500) was applied.
FLIPR Potassium Assay Kit: The FLIPR Potassium Assay Kit (R8222 FLIPR Potassium Assay Explorer Kits, Molecular Devices) was used with CHO/hERG cell line, for screening compounds against the hERG ion-channel off-target, as detailed hereinabove.
According to optimization process, to achieve a uniform and consistent screening condition of molecules, the following protocol was established: Cells were seeded in 384-well, black-walled, clear-bottomed, at a density of 7,500 cells per well 24 hours before the assay conductance and incubated overnight in their normal growth medium. On the experiment day the medium was replaced with HBSS, HEPES, and the tested compound/vehicle (0.2% DMSO). Dye solution (prepared according to the manufacturer) was added to the wells and plates were incubated for 1.5 hour light-protected in room temperature. The Tecan Spark plate-reader injectors were primed with Tl+(1 mM Tl2SO4) or Tl++K+(1 mM Tl2SO4; 10 mM K2SO4) for channel activation and data correction. […]. To calculate IC50 values, the data was fitted to sigmoidal regression using Prism GraphPad.

[3] = cells expressing TRPV1, read-out: TRPV1 IC50
[4] = 1-octanol/phosphate buffer, read-out: LogD

hERG, sequence (Q12809 whole entry): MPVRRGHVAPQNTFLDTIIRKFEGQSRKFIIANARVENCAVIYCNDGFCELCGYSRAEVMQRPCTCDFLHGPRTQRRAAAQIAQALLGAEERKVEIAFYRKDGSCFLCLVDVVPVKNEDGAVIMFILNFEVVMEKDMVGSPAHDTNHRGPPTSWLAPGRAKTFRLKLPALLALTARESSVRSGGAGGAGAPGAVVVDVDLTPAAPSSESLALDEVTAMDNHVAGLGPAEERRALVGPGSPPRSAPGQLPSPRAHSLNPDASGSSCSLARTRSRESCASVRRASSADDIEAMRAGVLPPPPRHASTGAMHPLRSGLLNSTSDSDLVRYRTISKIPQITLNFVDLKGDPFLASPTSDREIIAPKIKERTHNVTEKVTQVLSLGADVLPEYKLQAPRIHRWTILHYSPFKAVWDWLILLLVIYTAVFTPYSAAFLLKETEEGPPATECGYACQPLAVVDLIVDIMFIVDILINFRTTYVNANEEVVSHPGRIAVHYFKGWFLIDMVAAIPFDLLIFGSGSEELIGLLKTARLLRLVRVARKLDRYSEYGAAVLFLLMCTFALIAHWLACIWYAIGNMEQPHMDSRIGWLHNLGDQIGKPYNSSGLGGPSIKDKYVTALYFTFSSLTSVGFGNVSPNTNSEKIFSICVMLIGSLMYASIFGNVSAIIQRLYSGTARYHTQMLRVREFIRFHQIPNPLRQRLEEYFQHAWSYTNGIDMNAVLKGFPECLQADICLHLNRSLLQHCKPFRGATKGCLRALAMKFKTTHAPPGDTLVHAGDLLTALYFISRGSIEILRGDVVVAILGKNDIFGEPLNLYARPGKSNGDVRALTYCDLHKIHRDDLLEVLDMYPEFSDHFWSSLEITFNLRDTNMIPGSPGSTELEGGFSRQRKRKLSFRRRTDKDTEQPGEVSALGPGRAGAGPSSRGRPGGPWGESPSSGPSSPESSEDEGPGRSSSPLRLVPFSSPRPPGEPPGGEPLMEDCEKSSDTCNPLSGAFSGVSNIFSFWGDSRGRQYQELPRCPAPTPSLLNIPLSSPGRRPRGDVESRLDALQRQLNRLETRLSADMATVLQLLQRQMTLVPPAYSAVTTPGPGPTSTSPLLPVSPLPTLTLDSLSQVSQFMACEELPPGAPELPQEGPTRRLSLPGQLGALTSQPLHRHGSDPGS
T1 sequence (Q8NER1 whole entry): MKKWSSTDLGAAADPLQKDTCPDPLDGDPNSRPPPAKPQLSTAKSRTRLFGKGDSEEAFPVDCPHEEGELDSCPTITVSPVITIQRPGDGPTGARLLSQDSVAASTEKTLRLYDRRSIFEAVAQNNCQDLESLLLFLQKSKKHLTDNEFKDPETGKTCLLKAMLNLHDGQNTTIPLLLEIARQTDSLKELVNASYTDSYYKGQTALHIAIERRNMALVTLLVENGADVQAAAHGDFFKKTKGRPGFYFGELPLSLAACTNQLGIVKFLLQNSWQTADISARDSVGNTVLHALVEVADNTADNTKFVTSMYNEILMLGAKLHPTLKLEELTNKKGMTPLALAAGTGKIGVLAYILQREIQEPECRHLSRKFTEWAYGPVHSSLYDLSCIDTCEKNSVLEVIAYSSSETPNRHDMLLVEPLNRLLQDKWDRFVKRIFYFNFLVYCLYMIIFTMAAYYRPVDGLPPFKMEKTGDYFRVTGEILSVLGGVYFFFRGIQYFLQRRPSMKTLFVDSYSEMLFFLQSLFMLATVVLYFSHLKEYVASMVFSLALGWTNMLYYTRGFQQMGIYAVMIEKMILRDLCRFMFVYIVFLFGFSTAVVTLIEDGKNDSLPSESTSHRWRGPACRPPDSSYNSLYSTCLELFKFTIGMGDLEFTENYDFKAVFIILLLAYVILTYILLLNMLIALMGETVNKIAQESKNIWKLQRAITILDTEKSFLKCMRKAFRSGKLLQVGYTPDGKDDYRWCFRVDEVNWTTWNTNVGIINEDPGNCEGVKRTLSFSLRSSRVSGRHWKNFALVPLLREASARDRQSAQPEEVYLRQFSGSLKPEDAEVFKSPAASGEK
T2 sequence (O43525 whole entry): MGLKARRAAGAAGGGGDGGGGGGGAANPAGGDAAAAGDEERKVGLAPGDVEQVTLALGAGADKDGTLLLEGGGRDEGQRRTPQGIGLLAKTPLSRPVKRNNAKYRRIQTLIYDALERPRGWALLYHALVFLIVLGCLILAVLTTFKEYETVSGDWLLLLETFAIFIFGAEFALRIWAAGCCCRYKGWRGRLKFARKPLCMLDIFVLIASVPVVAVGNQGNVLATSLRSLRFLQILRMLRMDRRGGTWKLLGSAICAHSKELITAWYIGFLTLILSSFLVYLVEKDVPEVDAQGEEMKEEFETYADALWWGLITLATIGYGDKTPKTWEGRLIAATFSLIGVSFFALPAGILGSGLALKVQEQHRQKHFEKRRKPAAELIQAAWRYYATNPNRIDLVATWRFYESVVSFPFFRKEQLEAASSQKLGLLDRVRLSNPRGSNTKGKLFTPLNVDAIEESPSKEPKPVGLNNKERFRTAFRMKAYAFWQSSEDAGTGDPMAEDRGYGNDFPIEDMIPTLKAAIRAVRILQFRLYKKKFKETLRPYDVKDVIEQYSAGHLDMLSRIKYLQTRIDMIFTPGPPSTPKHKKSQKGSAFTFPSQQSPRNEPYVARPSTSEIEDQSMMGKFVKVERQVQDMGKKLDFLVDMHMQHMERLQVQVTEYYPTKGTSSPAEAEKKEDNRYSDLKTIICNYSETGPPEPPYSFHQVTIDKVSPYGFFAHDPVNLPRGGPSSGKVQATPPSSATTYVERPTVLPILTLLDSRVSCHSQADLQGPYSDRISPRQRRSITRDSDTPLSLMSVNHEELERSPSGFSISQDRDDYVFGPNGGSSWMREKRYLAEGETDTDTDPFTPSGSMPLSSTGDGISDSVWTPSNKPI
T2 sequence (O43526 whole entry): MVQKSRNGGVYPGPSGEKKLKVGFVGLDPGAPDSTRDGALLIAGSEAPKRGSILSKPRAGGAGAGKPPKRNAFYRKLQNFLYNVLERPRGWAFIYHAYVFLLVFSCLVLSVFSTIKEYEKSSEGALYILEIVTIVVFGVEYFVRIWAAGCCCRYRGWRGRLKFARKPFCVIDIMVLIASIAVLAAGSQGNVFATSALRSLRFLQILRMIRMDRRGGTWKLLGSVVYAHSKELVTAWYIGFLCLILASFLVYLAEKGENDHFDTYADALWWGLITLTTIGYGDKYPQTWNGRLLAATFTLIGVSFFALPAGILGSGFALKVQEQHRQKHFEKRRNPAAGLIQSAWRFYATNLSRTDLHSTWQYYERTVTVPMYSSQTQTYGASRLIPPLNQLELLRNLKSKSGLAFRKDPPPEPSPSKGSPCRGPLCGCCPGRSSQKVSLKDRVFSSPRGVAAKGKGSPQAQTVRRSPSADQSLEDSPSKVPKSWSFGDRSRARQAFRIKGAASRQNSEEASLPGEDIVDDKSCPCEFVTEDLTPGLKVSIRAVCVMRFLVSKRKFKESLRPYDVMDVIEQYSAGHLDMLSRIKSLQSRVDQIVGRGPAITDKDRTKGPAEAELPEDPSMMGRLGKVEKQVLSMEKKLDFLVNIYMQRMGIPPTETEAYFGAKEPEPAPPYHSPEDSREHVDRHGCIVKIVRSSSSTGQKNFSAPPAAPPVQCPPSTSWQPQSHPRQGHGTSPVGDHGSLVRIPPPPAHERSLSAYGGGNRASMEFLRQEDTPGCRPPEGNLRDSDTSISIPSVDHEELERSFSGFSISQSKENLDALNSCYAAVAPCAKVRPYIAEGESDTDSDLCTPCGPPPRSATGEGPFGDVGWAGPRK

Row | IC50 (hTRPV1; [3]) [µM] | EC50 (hKv7.2/3) [µM] | logD [1, 4] | solubility kinetic (Kinetic solubility) [µM] | microsomal CLint at 1 µM [2] [µL/min/mg] | Compound | further results
1 | 1 | 12 | – | – | – | Cc1cn(-c2ccc(F)c(CC(=O)NCCO)c2)c2c(Cl)cc(Cl)cc12 [Compound 552] | logD [1]: 4.77; Kinetic Sol. (Kinetic solubility): 5; HLM Clint [2]: 27.2 µL/min/mg
2 | 3.3 | 5.2 | 4.19 | 10 (≈ 3.99 µg/mL) | 27.3 | O=C(Cc1cncc(-n2cc(Cl)c3cc(Cl)cc(Cl)c32)c1)NCCO [Compound 649] | –
3 | – | – | – | – | – | CC(C)c1cc(Cl)cc(Cl)c1Sc1ccc(F)c(CC(=O)N[C@H]2C[C@H](O)C2)c1 [Compound 480] | IC50 (hTRPV1): 1.4 µM
4 | 1.1 | 1.8 | – | – | 686 | COC[C@@H](CO)NC(=O)Cc1cc(Sc2c(Cl)cc(Cl)cc2C(C)C)ccc1F [Compound 414] | IC50 (hERG): > 2.5 µM; hERG IC50 (inhibition in parentheses) (hERG): 0%; IC50 (hTRPV1; Table 2, read-out: Experimental IC50): 1.1 µM
5 | – | 8 | 3.49 | 6 (≈ 2.64 µg/mL) | 38.1 | O=C(Cc1cncc(-n2cc(Cl)c3cc(Cl)cc(Cl)c32)c1)N[C@@H]1COC[C@@H]1O [Compound 662] | TRPV1 IC50 (hTRPV1; cells expressing TRPV1): agonist
6 | 3.2 | 4.7 | – | – | – | Cc1cn(-c2ccc(F)c(CC(=O)NCCOCCOCC(C)(C)O)c2)c2c(Cl)cc(Cl)cc12 [Compound 541] | logD [1]: 4.78; Kinetic Sol. (Kinetic solubility): 2; HLM Clint [2]: 772.2 µL/min/mg
7 | 10 | 3 | 4.47 | 27 (≈ 12.2 µg/mL) | 120 | CC(C)c1cc(Cl)cc(Cl)c1C(=O)c1ccc(F)c(CC(=O)NCC2(O)CCC2)c1 [Compound 569] | –
8 | – | – | – | – | – | CC(C)c1cc(Cl)cc(Cl)c1C(O)c1ccc(F)c(CC(=O)NCC2(O)CCC2)c1 (single isomer, unassigned) [Compound 533p1] | TRPV1 modulation (words) (hTRPV1): inhibits hTRPV1; TRPV1 modulation (words) (hTRPV1; listed as 533P1): TRPV1 inhibition; Kv7.2/3 activation (words) (hKv7.2/3): lower; Kv7.2/3 activation (words) (hKv7.2/3; listed as 533P1): primarily activation of Kv7.2/3
9 | – | 5.9 | 3.52 | 26 (≈ 11.5 µg/mL) | 53.6 | O=C(Cc1cncc(-n2cc(Cl)c3cc(Cl)cc(Cl)c32)c1)N[C@H]1COC[C@@H]1O [Compound 663] | –
10 | 3 | 7 | 4.34 | 24 (≈ 10.5 µg/mL) | 441 | CC(C)c1cc(Cl)cc(Cl)c1C(=O)c1ccc(F)c(CC(=O)NCC2(O)CC2)c1 [Compound 573] | –
11 | 26.6 | 5.6 | – | – | 89.1 | CC(C)c1cc(Cl)cc(Cl)c1C(O)c1ccc(F)c(CC(=O)NCC(C)(C)O)c1 (centres unmarked) [Compound 417] | IC50 (hERG): > 2.5 µM; hERG IC50 (inhibition in parentheses) (hERG): 0%
